The numbers were not newly measured in patent US9333228B2, “Nutritional supplement for recovery, repair, and maintenance” (Top Doctors Labs, LLC, priority 2010, dated 2016), which cites them from elsewhere.

The subject of the series is osteoporotic fractures. Conditions: human clinical studies; vitamin K2 as MK-4.

As for `CC(C)=CCC/C(C)=C/CC/C(C)=C/CC/C(C)=C/CC1=C(C)C(=O)c2ccccc2C1=O` [vitamin K2, menatetranone], the “lower risk of osteoporotic fractures” value is “up to 81%”.
